Results on one compound are retold here after ChEMBL document CHEMBL1147188, “Metal complexes of retinoid derivatives with antiproliferative activity: synthesis, characterization and DNA interaction studies” (Eur J Med Chem, 2007).

Molecules are shown by their SMILES.

Data set [1] can be described thus: Partition coefficient, log P of the compound. The data set is classed as physicochemical. The settings on record: octanol/water.
The species named for a further data set is Homo sapiens. Description: Binding affinity to DNA.
A further data set relates to PBMC. As to the kind of experiment: Growth inhibition of human PBMC after 48 hrs by XTT assay. The format is cell-based. A general note: Tetrazolium dyes change colour on reduction, which living cells bring about.

Take `CC1=C(/C=C/C(C)=C\C=C\C(C)=C\C=N/NC(N)=S)C(C)(C)CCC1`: the logP (in general, a log measure of how a compound divides between an organic and an aqueous phase) in data set [1] is 1.05. Besides, the Kb in the data set filed under Homo sapiens was 8.3 10^5/M. Besides, the Activity result with PBMC is “Non-toxic”.
